# From patent US20130251783A1, “LIPOSOMES CONTAINING PERMEATION ENHANCERS FOR ORAL DRUG DELIVERY” (Universitat Heidelberg, priority 2011, published 2013)
# Tests used:
# Caco-2 cells [1] = experiment: Alamar Blue cytotoxicity assay; assay type: cell-based
# Procedure: (§1) Caco-2 cells were grown in T-75 flasks in Dulbecco's modified Eagle's medium (DMEM) supplemented with 10% FBS, 1% non-essential amino acids, 1% pyruvate, 1% L-glutamine, 100 U/ml penicillin and 100 μg/ml streptomycin at 37° C. in an atmosphere with 5% CO2 and in equilibrium with distilled water. The medium was changed every other day, and the cells were subcultured at 80% confluency. Cells were used in the experiments described below.
# (§2) Cytotoxicity of liposomes and bio-enhancer solutions was investigated using the Alamar Blue® assay (AbD Serotec, Oxford, UK) and by determination of the release of lactate dehydrogenase (LDH) with a test kit (Sigma-Aldrich, Taufkirchen, Germany). […] The formed NADH in turn reduces a tetrazolium salt to a red-coloured product which can be determined photometrically. […]
# In terms of the Alamar Blue® assay, groups of eight wells were incubated with the solutions of the bio-enhancers in five concentrations (1 μM, 10 μM, 100 μM, 1 mM and 10 mM) and the liposomal formulations in three concentrations (0.5 mM, 5 mM and 50 mM total lipid) in KRB for 2, 4, and 8 h at 37° C. […] After 4 h at 37° C., the colour change of the dye was determined at an excitation wavelength of 530 nm and an emission wavelength of 590 nm in a Fluoroskan Ascent® plate reader. […] Cell viability was expressed as follows: […]
# Caco-2 cells [2] = experiment: LDH release cytotoxicity assay; assay type: cell-based; conditions: free solution, all concentrations (likely inhibition of the enzymatic reaction)
# Procedure: as §1, §2
# For the LDH release assay, cells were treated similar as described for the Alamar Blue® cytotoxicity assay with little changes. […] The reaction was stopped by the addition of 10 μl 1N HCl and subsequently, the colour change of the dye was measured by a Tecan microplate absorbance reader (Sunrise, Tecan, Grodig, Austria) at a wavelength of 490 nm and a reference wavelength of 700 nm. To eliminate the influence of the liposomes and the bio-enhancers on the absorbance, a blank was measured of the formulations with a concentration equal to the final assay concentration. […]
# rats [3] = conditions: cited from earlier work
# rabbits = conditions: cited from earlier work
# Caco-2 cells [4] = conditions: cited from earlier work
# rats [5] = conditions: rats fed daily around 37.7 mg/kg for two years; cited from earlier work
structure (smiles),measurement,setting,value
"CCCCCCCCCCCCCCCC[n+]1ccccc1 [CpCl, cetylpyridinium chloride]",Toxicity compared among the investigated enhancers,Caco-2 cells [1]; Caco-2 cells,most toxic
same,Cytotoxicity (cell viability),"Caco-2 cells [1]; free enhancer in KRB, concentration 1 mM",strong cytotoxicity
same,LDH release compared to incubation with KRB,Caco-2 cells [2],lower as the release after incubation with KRB
same,LD50,rats [3],200 mg/kg
same,LD50,rabbits,400 mg/kg
"C[C@H](CCC(=O)N(C)CC(=O)O)[C@H]1CC[C@H]2[C@@H]3[C@H](O)C[C@@H]4C[C@H](O)CC[C@]4(C)[C@H]3C[C@H](O)[C@]12C [CS, cholylsarcosine]",Cytotoxicity in WST-1 transformation assay,Caco-2 cells [4],no cytotoxicity
"CCCCCCCCCCCCCCCCCCN [SA, stearylamine]",Side effects,rats [5],without causing any side effects
